Assay results as given in PubChem BioAssay AID192 (DTP/NCI, 2004).
Several values for one entry are separate records, joined by “and”; a condition that tells them apart may be missing. Equal values may be shown once. Inconclusive results and toxic doses are left out. How the source made its calls: active means survival T/C of 150% or more; inactive means T/C below 125% in these data.

Tested on: BDF1 mice, B16 melanoma ip, median survival T/C
Assay: NCI In Vivo Anticancer Drug Screen. Data for tumor model B16 Melanoma (intraperitoneal) in B6D2F1 (BDF1) mice
Conditions: endpoint: median survival time, higher = longer survival
Procedure, shortened: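 Each result divides a survival or tumor-size measurement in the compound-treated group by the same measurement in the vehicle group.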

[1] = dose: 25.0 mg/kg/injection, schedule: Q01DX009 (ip), vehicle: saline with Tween-80
[2] = dose: 50.0 mg/kg/injection, schedule: Q01DX009 (ip), vehicle: saline with Tween-80
[3] = dose: 100.0 mg/kg/injection, schedule: Q01DX009 (ip), vehicle: saline with Tween-80
[4] = dose: 100.0 mg/kg/injection, schedule: Q01DX009 (ip), vehicle: Klucel (hydroxypropylcellulose) (HPC)
[5] = dose: 2.5 mg/kg/injection, schedule: Q01DX009 (ip), vehicle: saline with Tween-80
[6] = dose: 12.5 mg/kg/injection, schedule: Q01DX009 (ip), vehicle: saline with Tween-80
[7] = dose: 25.0 mg/kg/injection, schedule: Q01DX009 (ip), vehicle: Klucel (hydroxypropylcellulose) (HPC)
[8] = dose: 50.0 mg/kg/injection, schedule: Q01DX009 (ip), vehicle: Klucel (hydroxypropylcellulose) (HPC)
[9] = dose: 200.0 mg/kg/injection, schedule: Q01DX009 (ip), vehicle: Klucel (hydroxypropylcellulose) (HPC)
[10] = dose: 400.0 mg/kg/injection, schedule: Q01DX009 (ip), vehicle: Klucel (hydroxypropylcellulose) (HPC)
[11] = dose: 6.25 mg/kg/injection, schedule: Q01DX009 (ip), vehicle: saline with Tween-80

Measured: T/C

CC(C)[S][Pb]([c]1ccccc1)([c]1ccccc1)[c]1ccccc1
inactive: dose: 0.3 mg/kg/injection, schedule: Q01DX009 (ip), vehicle: gum acacia 97 % of control | dose: 0.6 mg/kg/injection, schedule: Q01DX009 (ip), vehicle: gum acacia 91 % of control | dose: 1.25 mg/kg/injection, schedule: Q01DX009 (ip), vehicle: gum acacia 89 % of control

CCc1occ(C(=O)OC)c1C(=O)OC
inactive: dose: 100.0 mg/kg/injection, schedule: Q04DX003 (ip), vehicle: saline with Tween-80 102 % of control | dose: 200.0 mg/kg/injection, schedule: Q04DX003 (ip), vehicle: saline with Tween-80 97 % of control | dose: 400.0 mg/kg/injection, schedule: Q04DX003 (ip), vehicle: saline with Tween-80 95 % of control

Cn1c(C[N+](C)(C)C)cc2ccccc21
inactive: [1] 97 % of control | [2] 94 % of control | [3] 86 % of control

Cc1cccc(C)c1NC(=O)c1ccc(Cl)cc1Cl
inactive: [4] 92 % of control

Nc1ccn(C2CC(O)C(CO)O2)c(=O)n1 (stereo not drawn)
inactive: dose: 9.38 mg/kg/injection, schedule: Q01DX009 (ip), vehicle: water 105 % of control | dose: 18.75 mg/kg/injection, schedule: Q01DX009 (ip), vehicle: water 101 % of control | dose: 37.5 mg/kg/injection, schedule: Q01DX009 (ip), vehicle: water 100 % of control | dose: 75.0 mg/kg/injection, schedule: Q01DX009 (ip), vehicle: water 99 % of control | dose: 150.0 mg/kg/injection, schedule: Q01DX009 (ip), vehicle: water 109 % of control

CC(=O)Nc1cc(F)c([N+](=O)[O-])cc1[N+](=O)[O-]
inactive: dose: 0.63 mg/kg/injection, schedule: Q01DX009 (ip), vehicle: saline with Tween-80 104 % of control | dose: 1.25 mg/kg/injection, schedule: Q01DX009 (ip), vehicle: saline with Tween-80 90 % of control | [5] 104 % of control

NC(N)=Nc1ccc(C(=O)Oc2ccc([N+](=O)[O-])cc2Cl)cc1
inactive: [6] 97 % of control | [1] 101 % of control | [2] 93 % of control

NC1=NCN(C2OC(CO)C(O)C2O)C(=O)N1 (stereo not drawn)
inactive: dose: 1.56 mg/kg/injection, schedule: Q01DX009 (ip), vehicle: saline 92 % of control and 110 % of control | dose: 3.12 mg/kg/injection, schedule: Q01DX009 (ip), vehicle: saline 96 % of control | dose: 3.12 mg/kg/injection, schedule: Q01DX009 (ip), vehicle: suspension in saline 93 % of control | dose: 6.25 mg/kg/injection, schedule: Q01DX009 (ip), vehicle: saline 94 % of control and 110 % of control | dose: 6.25 mg/kg/injection, schedule: Q01DX009 (ip), vehicle: suspension in saline 110 % of control | dose: 12.5 mg/kg/injection, schedule: Q01DX009 (ip), vehicle: saline 110 % of control | dose: 12.5 mg/kg/injection, schedule: Q01DX009 (ip), vehicle: suspension in saline 110 % of control | dose: 25.0 mg/kg/injection, schedule: Q01DX009 (ip), vehicle: saline 94 % of control and 111 % of control | dose: 25.0 mg/kg/injection, schedule: Q01DX009 (ip), vehicle: suspension in saline 89 % of control | dose: 50.0 mg/kg/injection, schedule: Q01DX009 (ip), vehicle: saline 111 % of control | dose: 200.0 mg/kg/injection, schedule: Q01DX009 (ip), vehicle: saline 111 % of control and 119 % of control

O=Cc1cc2c(cc1Cl)OCO2
inactive: [3] 107 % of control | dose: 200.0 mg/kg/injection, schedule: Q01DX009 (ip), vehicle: saline with Tween-80 101 % of control | dose: 400.0 mg/kg/injection, schedule: Q01DX009 (ip), vehicle: saline with Tween-80 99 % of control

CCC[CH2][Sn-]([CH2]CCC)([CH2]CCC)[O]c1cc(Cl)c(Cl)cc1Cl
inactive: dose: 0.25 mg/kg/injection, schedule: Q01DX009 (ip), vehicle: Klucel (hydroxypropylcellulose) (HPC) 95 % of control | dose: 0.5 mg/kg/injection, schedule: Q01DX009 (ip), vehicle: Klucel (hydroxypropylcellulose) (HPC) 94 % of control | dose: 1.0 mg/kg/injection, schedule: Q01DX009 (ip), vehicle: Klucel (hydroxypropylcellulose) (HPC) 96 % of control

Clc1ncnc2nc[nH]c12
inactive: dose: 50.0 mg/kg/injection, schedule: Q01DX009 (ip), vehicle: saline sonified 92 % of control | [2] 86 % of control | dose: 100.0 mg/kg/injection, schedule: Q01DX009 (ip), vehicle: saline sonified 97 % of control | [3] 97 % of control | dose: 200.0 mg/kg/injection, schedule: Q01DX009 (ip), vehicle: saline sonified 110 % of control

O=C1C(Cl)=C(c2ccccc2)C(=O)C(Cl)=C1c1ccccc1
inactive: dose: 6.25 mg/kg/injection, schedule: Q01DX009 (ip), vehicle: Klucel (hydroxypropylcellulose) (HPC) 114 % of control | dose: 12.5 mg/kg/injection, schedule: Q01DX009 (ip), vehicle: Klucel (hydroxypropylcellulose) (HPC) 106 % of control | [7] 87 % of control | [8] 94 % of control

O=S(=O)(NC(=S)S)c1ccccc1
inactive: dose: 12.5 mg/kg/injection, schedule: Q01DX009 (ip), vehicle: water 91 % of control | dose: 25.0 mg/kg/injection, schedule: Q01DX009 (ip), vehicle: water 94 % of control | dose: 50.0 mg/kg/injection, schedule: Q01DX009 (ip), vehicle: water 86 % of control

CCOC(=O)C(Br)C(=O)OCC
inactive: dose: 0.58 mg/kg/injection, schedule: Q04DX003 (ip), vehicle: saline 97 % of control | dose: 1.17 mg/kg/injection, schedule: Q04DX003 (ip), vehicle: saline 100 % of control | dose: 2.34 mg/kg/injection, schedule: Q04DX003 (ip), vehicle: saline 97 % of control | dose: 4.68 mg/kg/injection, schedule: Q04DX003 (ip), vehicle: saline 93 % of control

CC(=O)N(C(C)=O)C1=C(c2ccccc2)C(=O)c2ccccc21
inactive: [4] 100 % of control | [9] 97 % of control | [10] 97 % of control

COc1cc2c3c(c4ccc(OC)c(OC)c4c2cc1OC)CN1CCC[C@@H]1C3
inactive: dose: 2.0 mg/kg/injection, schedule: Q01DX009 (ip), vehicle: saline with Tween-80 97 % of control | dose: 4.0 mg/kg/injection, schedule: Q01DX009 (ip), vehicle: saline with Tween-80 89 % of control | dose: 8.0 mg/kg/injection, schedule: Q01DX009 (ip), vehicle: saline with Tween-80 102 % of control and 118 % of control | dose: 16.0 mg/kg/injection, schedule: Q01DX009 (ip), vehicle: saline with Tween-80 106 % of control

O=C(NC(CSCc1ccccc1)C(=O)Oc1ccc([N+](=O)[O-])cc1)OCc1ccccc1 (stereo not drawn)
inactive: dose: 25.0 mg/kg/injection, schedule: Q01DX009 (ip), vehicle: gum acacia 97 % of control

CC(COCc1ccccc1)NCc1ccccc1 (stereo not drawn)
inactive: [7] 96 % of control | [8] 90 % of control

COc1cccc2c1C(=O)c1c(O)c3c(c(O)c1C2=O)C[C@@](O)(C(C)=O)C[C@@H]3OC1CC(N2CCC(OC)CC2)C(O)C(C)O1 (stereo partly drawn)
inactive: dose: 1.56 mg/kg/injection, schedule: Q01DX001 (ip), vehicle: water 123 % of control
active: dose: 6.25 mg/kg/injection, schedule: Q01DX001 (ip), vehicle: water 162 % of control

COc1ccccc1N=NC(C#N)C(N)=O (stereo not drawn)
inactive: [11] 91 % of control | [6] 94 % of control | [1] 87 % of control | [2] 112 % of control

CCOC(=O)C(Cc1ccc(Cl)cc1)(Cc1ccc(Cl)cc1)C(=O)OCC
inactive: [4] 106 % of control | [9] 100 % of control | [10] 93 % of control

Cc1ccc2c(C)c3c(ccc4ccccc43)c[n+]2c1
inactive: dose: 1.25 mg/kg/injection, schedule: Q01DX009 (ip), vehicle: saline 100 % of control | [5] 95 % of control | dose: 2.5 mg/kg/injection, schedule: Q01DX009 (ip), vehicle: saline 100 % of control | dose: 5.0 mg/kg/injection, schedule: Q01DX009 (ip), vehicle: saline with Tween-80 95 % of control | dose: 5.0 mg/kg/injection, schedule: Q01DX009 (ip), vehicle: saline 100 % of control | dose: 10.0 mg/kg/injection, schedule: Q01DX009 (ip), vehicle: saline 105 % of control

Cc1c2ccnc(-c3ccccc3)c2cc2c1[nH]c1ccccc12
inactive: [1] 115 % of control | [2] 104 % of control | [3] 94 % of control and 96 % of control

NC(=S)N/N=C/c1cccc(CC(O)(C(F)(F)F)C(F)(F)F)n1
inactive: [11] 95 % of control | dose: 6.25 mg/kg/injection, schedule: Q04DX003 (ip), vehicle: saline with Tween-80 116 % of control | [6] 90 % of control | dose: 12.5 mg/kg/injection, schedule: Q04DX003 (ip), vehicle: saline with Tween-80 116 % of control | [1] 88 % of control | dose: 25.0 mg/kg/injection, schedule: Q04DX003 (ip), vehicle: saline with Tween-80 100 % of control
